Consider 18 compounds from patent publication US20260337153A1, “IONIZABLE AMINE LIPIDS” (Intellia Therapeutics, Inc., priority 2023, published 2026).

The structures appear in SMILES notation.

The assay has as its system rat TTR gene. Nature of the assay: In vivo editing of TTR in rat liver after LNP delivery (NGS, % editing). On the set-up: species or system rat (Sprague-Dawley). Here is the method:
LNPs were prepared using various amine lipids in a 4-component lipid system consisting of an ionizable lipid (e.g., an amine lipid), DSPC, cholesterol and a PEG lipid (e.g., PEG2K-DMG, C13 Ether, C14 Ether). In assays for percent liver editing in rats, Cas9 mRNA and chemically modified sgRNA targeting a rat sequence were formulated in LNPs, at either a 1:1 w/w ratio or a 1:2 w/w sgRNA:Cas9 mRNA ratio.
The lipid components were dissolved in 100% ethanol with the lipid component molar ratios described below. The chemically modified sgRNA and Cas9 mRNA were combined and dissolved in 25 mM citrate, 100 mM NaCl, pH 5.0, resulting in a concentration of total RNA cargo of approximately 0.45 mg/mL. The LNPs were formulated with an N:P ratio of about 6, with the ratio of chemically modified sgRNA:Cas9 mRNA at either a 1:1 or 1:2 w/w ratio as described below.
The LNPs were formed by an impinging jet mixing of the lipid in ethanol with two volumes of RNA solution and one volume of water. First, the lipid in ethanol is mixed through a mixing cross with the two volumes of RNA solution. Then, a fourth stream of water is mixed with the outlet stream of the cross through an inline tee. (See, e.g., WO2016010840, FIG. 2). The LNPs were held for 1 hour at room temperature, and further diluted with water (approximately 1:1 v/v). Diluted LNPs were buffer exchanged into 50 mM Tris, 45 mM NaCl, 5% (w/v) sucrose, pH 7.5 (TSS) and concentrated as needed by methods known in the art. The resulting mixture was then filtered using a 0.2 μm sterile filter. The final LNP was stored at 4° C. or −80° C. until further use.
Sprague-Dawley female rats, ranging from 6-10 weeks of age were used in each study. Animals were weighed and dosed based on individual body weight measured the morning of dosing. LNPs were dosed via the lateral tail vein in a volume of 2 mL per kilogram of animal body weight. The animals were periodically observed for adverse effects for at least 24 hours post dose.
For studies measuring in vivo editing in liver, Sprague-Dawley female rats were dosed at 0.1 mpk or 0.03 mpk, unless otherwise noted. Animals were euthanized at 6 or 7 days by carbon dioxide asphyxiation and a heart clip or by ex sanguination via cardiac puncture under isoflourane anesthesia. Blood was collected into serum separator tubes. Liver tissue was collected. Genomic DNA was isolated from the liver tissue for editing measurement by Next-Generation Sequencing (NGS).
In brief, to quantitatively determine the efficiency of editing at the target location in the genome, genomic DNA was isolated and deep sequencing was utilized to identify the presence of insertions and deletions introduced by gene editing.
PCR primers were designed around the target site (e.g., TTR), and the genomic area of interest was amplified. Additional PCR was performed according to the manufacturer's protocols (Illumina) to add the necessary chemistry for sequencing. The amplicons were sequenced on an Illumina MiSeq instrument. The reads were aligned to the […] after eliminating those having low quality scores. The resulting files containing the reads were mapped to the reference genome (BAM files), where reads that overlapped the target region of interest were selected and the number of wild type reads versus the number of reads which contain an insertion, substitution, or deletion was calculated.
The editing percentage (e.g., the “indel efficiency” or “percent indels” or “% editing” or “% indel”) can be defined as the total number of sequence reads with insertions or deletions over the total number of sequence reads, including wild type.
In vivo editing efficiency for materials delivered with formulations including various amine lipid (or ionizable lipid) compounds in Experiments 1 through 14 as described in Tables 3 and 4 was assessed. Editing was measured using G000534 (SEQ ID NO: 5) which targets the rat TTR gene. […]

The mark [1] stands for this setting: Experiment 3, 0.1 mpk, LNP with PEG2K-DMG.
The mark [2] stands for this setting: Experiment 2, 0.1 mpk, LNP with PEG2K-DMG.
Where [3] appears, read: Experiment 14, 0.03 mpk, LNP with C13 Ether.
The mark [4] stands for this setting: Experiment 4, 0.1 mpk, LNP with PEG2K-DMG.
The mark [5] stands for this setting: Experiment 9, 0.1 mpk, LNP with PEG2K-DMG.

The compound `CCCCCCCCOC(CCC(=O)OCC(COC(=O)CCC(OCCCCCCCC)OCCCCCCCC)COC(=O)OCCCN(CC)CC)OCCCCCCCC` [Compound 1, 2-((((3-(diethylamino)propoxy)carbonyl)oxy)methyl)propane-1,3-diyl bis(4,4-bis(octyloxy)butanoate)] displayed a Mean % editing under setting [1] of 52.4%. In the case of `CCCCCCCCC(CCCCCCCC)OC(=O)CCCC(=O)OCC(COC(=O)CCCC(=O)OC(CCCCCCCC)CCCCCCCC)COC(=O)OCCCN(CC)CC` [Compound 2, O,O′-(2-((((3-(diethylamino)propoxy)carbonyl)oxy)methyl)propane-1,3-diyl) di(heptadecan-9-yl) diglutarate], the Mean % editing amounted to 59.8% under setting [2], 38.3% under setting [1] and 21.2% under setting [3]. Turning to `CCCCCCCCC(CCCCCCCC)OC(=O)CCCCCC(=O)OCC(COC(=O)CCCCCC(=O)OC(CCCCCCCC)CCCCCCCC)COC(=O)OCCCN(CC)CC` [Compound 3, O′1,O1-(2-((((3-(diethylamino)propoxy)carbonyl)oxy)methyl)propane-1,3-diyl) 7,7′-di(heptadecan-9-yl) di(heptanedioate)], the Mean % editing under setting [2] is recorded as 53.0%. For the compound `CCCCC/C=C\C/C=C\CCCCCCCC(=O)OCC(COC(=O)CCCCCC(=O)OCC(CCCC)CCCCCC)COC(=O)OCCCN(CC)CC` (stereo not drawn) [Compound 4, 1-(2-butyloctyl) 7-(3-(((3-(diethylamino)propoxy)carbonyl)oxy)-2-((((9Z,12Z)-octadeca-9,12-dienoyl)oxy)methyl)propyl) heptanedioate], the Mean % editing runs as follows: under setting [2], 27.2%; under setting [1], 29.7%.

Turning to `CCCCCCC(CCCC)COC(=O)CCCCCC(=O)OCC(COC(=O)CCCCCC(=O)OCC(CCCC)CCCCCC)COC(=O)OCCCN(CC)CC` (stereo not drawn) [Compound 5, 7,7′-bis(2-butyloctyl) O′1,O1-(2-((((3-(diethylamino)propoxy)carbonyl)oxy)methyl)propane-1,3-diyl) di(heptanedioate)], the Mean % editing under setting [2] is listed as 52.0%. As for `CCCCCCCCC(CCCCCCCC)OC(=O)CCCC(=O)OCC(COC(=O)CCCC(=O)OC(CCCCCCCC)CCCCCCCC)COC(=O)NCCN(CC)CC` [Compound 6, O,O′-(2-((((2-(diethylamino)ethyl)carbamoyl)oxy)methyl)propane-1,3-diyl) di(heptadecan-9-yl) diglutarate], the Mean % editing (Experiment 12, 0.04 mpk, LNP with PEG2K-DMG) came out at 36.3%; the Mean % editing (Experiment 13, 0.03 mpk, LNP with PEG2K-DMG) worked out at 25.0%; the Mean % editing under setting [3] is given as 22.4%; the Mean % editing (Table 6, 0.03 mpk, PEG lipid C13 Ether) is 27.4%; the Mean % editing (Table 6, 0.03 mpk, PEG lipid C14 Ether) was found to be 18.9%; the Mean % editing (Table 6, 0.03 mpk, PEG lipid PEG2K-DMG) is recorded as 26.8%. This compound also yielded a Mean % editing (Table 8, 0.03 mpk, LNP with C13 Ether) of 41.7%. The “Mean % editing in rat liver” value (NGS, dose 0.03 mpk, LNP with G000534 sgRNA and Cas9 mRNA 1:2 w/w, 3% C13 Ether (Compound 53: 3% PEG2K-DMG), N=5 (Compound 33: N=4)) is 30.4%.

`CCCCC/C=C\C/C=C\CCCCCCCC(=O)OCC(CCCCCCCCC(=O)OCC(CCCC)CCCCCC)COC(=O)OCCCN(CC)CC` (stereo not drawn) [Compound 7, 11-((2-butyloctyl)oxy)-2-((((3-(diethylamino)propoxy)carbonyl)oxy)methyl)-11-oxoundecyl (9Z,12Z)-octadeca-9,12-dienoate] came in with a Mean % editing under setting [1] of 30.0%. On the same count and under the same terms, with `CCCCCCCCC(CCCCCCCC)OC(=O)CCCCCCC(COC(=O)CCCC(=O)OC(CCCCCCCC)CCCCCCCC)COC(=O)OCCCN(CC)CC` (stereo not drawn) [Compound 8, 2-((((3-(diethylamino)propoxy)carbonyl)oxy)methyl)-9-(heptadecan-9-yloxy)-9-oxononyl heptadecan-9-yl glutarate] the figure was 20.8%. Take `CCCCC/C=C\C/C=C\CCCCCCCC(=O)OCC(CCCCCCCCC(=O)OC(CCCCCCCC)CCCCCCCC)COC(=O)OCCCN(CC)CC` (stereo not drawn) [Compound 9, 2-((((3-(diethylamino)propoxy)carbonyl)oxy)methyl)-11-(heptadecan-9-yloxy)-11-oxoundecyl (9Z,12Z)-octadeca-9,12-dienoate]: the Mean % editing under setting [1] is reported as 5.3%, the Mean % editing under setting [4] was determined as 9.6% and the Mean % editing under setting [5] is on record as 4.3%. For the compound `CCCCC/C=C\C/C=C\CCCCCCCC(=O)OCC(CCCCCCCCC(=O)OC(CCCCCCCC)CCCCCCCC)COC(=O)NCCN(CC)CC` (stereo not drawn) [Compound 10, 2-((((2-(diethylamino)ethyl)carbamoyl)oxy)methyl)-11-(heptadecan-9-yloxy)-11-oxoundecyl (9Z,12Z)-octadeca-9,12-dienoate], under setting [4], the Mean % editing was 35.3%. Compound `CCCCC/C=C\C/C=C\CCCCCCCC(=O)OCC(CCCCCCCCC(=O)OC(CCCCCCCC)CCCCCCCC)COC(=O)OCCCN(C)CC` (stereo not drawn) [Compound 11, 2-((((3-(ethyl(methyl)amino)propoxy)carbonyl)oxy)methyl)-11-(heptadecan-9-yloxy)-11-oxoundecyl (9Z,12Z)-octadeca-9,12-dienoate] yielded a Mean % editing under setting [4] of 14.0%. Same read-out and setting: with `CCCCC/C=C\C/C=C\CCCCCCCC(=O)OCC(CCCCC(=O)OC(CCCC)CCCC)COC(=O)NCCN(CC)CC` (stereo not drawn) [Compound 12, 2-((((2-(diethylamino)ethyl)carbamoyl)oxy)methyl)-7-(nonan-5-yloxy)-7-oxoheptyl (9Z,12Z)-octadeca-9,12-dienoate] the figure was 11.6%. Consider `CCCCC/C=C\C/C=C\CCCCCCCC(=O)OCC(CCCCC(=O)OC(CCCC)CCCC)COC(=O)OCCCN(C)CC` (stereo not drawn) [Compound 13, 2-((((3-(ethyl(methyl)amino)propoxy)carbonyl)oxy)methyl)-7-(nonan-5-yloxy)-7-oxoheptyl (9Z,12Z)-octadeca-9,12-dienoate], for which the Mean % editing under setting [4] is given as 20.9%. For the compound `CCCCC/C=C\C/C=C\CCCCCCCC(=O)OCC(CCCCC(=O)OC(CCCC)CCCC)COC(=O)OCCCN(CC)CC` (stereo not drawn) [Compound 14, 2-((((3-(diethylamino)propoxy)carbonyl)oxy)methyl)-7-(nonan-5-yloxy)-7-oxoheptyl (9Z,12Z)-octadeca-9,12-dienoate], the Mean % editing under setting [4] worked out at 16.8%.

As to `CCCCC/C=C\C/C=C\CCCCCCCC(=O)OCC(CCCCC(=O)OC(CCCCCCCC)CCCCCCCC)COC(=O)OCCCN(CC)CC` (stereo not drawn) [Compound 15, 2-((((3-(diethylamino)propoxy)carbonyl)oxy)methyl)-7-(heptadecan-9-yloxy)-7-oxoheptyl (9Z,12Z)-octadeca-9,12-dienoate], the Mean % editing under setting [5] is on record as 15.1%.

Under setting [5], `CCCCC/C=C\C/C=C\CCCCCCCC(=O)OCC(CCCCCCC(=O)OC(CCCCCCCC)CCCCCCCC)COC(=O)OCCCN(CC)CC` (stereo not drawn) [Compound 16, 2-((((3-(diethylamino)propoxy)carbonyl)oxy)methyl)-9-(heptadecan-9-yloxy)-9-oxononyl (9Z,12Z)-octadeca-9,12-dienoate] registered a Mean % editing of 14.9%. The compound `CCCCC/C=C\C/C=C\CCCCCCCC(=O)OCC(CCCCC(=O)OC(CCCCCC)CCCCCC)COC(=O)OCCCN(CC)CC` (stereo not drawn) [Compound 17, 2-((((3-(diethylamino)propoxy)carbonyl)oxy)methyl)-7-oxo-7-(tridecan-7-yloxy)heptyl (9Z,12Z)-octadeca-9,12-dienoate] registered a Mean % editing under setting [5] of 35.8%. Same read-out and setting: with `CCCCC/C=C\C/C=C\CCCCCCCC(=O)OCC(CCCCCCC(=O)OC(CCCCCC)CCCCCC)COC(=O)OCCCN(CC)CC` (stereo not drawn) [Compound 18, 2-((((3-(diethylamino)propoxy)carbonyl)oxy)methyl)-9-oxo-9-(tridecan-7-yloxy)nonyl (9Z,12Z)-octadeca-9,12-dienoate] the figure was 34.4%.
